Values of other authors in paper PMC11949389 (Polish Journal of Microbiology, 2025).
In brackets after ≈: the same amount, converted by molar mass. Like-named read-outs stand apart in the source and are kept apart here.

Tests used:
[1] = tested on: Ciprofloxacin-resistant Escherichia coli; conditions: resistant E. coli strains; ref Owen et al. (2019)
[2] = tested on: amphotericin B-resistant C. albicans; conditions: varying among Candida isolates; ref Touil et al. (2020)
[3] = tested on: Vancomycin-sensitive Enterococcus (VSE)
[4] = tested on: Vancomycin-resistant Enterococcus (VRE); conditions: vancomycin-resistant enterococci strains; ref Owen et al. (2019)
[5] = tested on: bacteria co-isolated with C. albicans; conditions: ref Touil et al. (2020)
[6] = tested on: Escherichia coli; conditions: antibiotic-sensitive E. coli; ref Owen et al. (2019)
[7] = tested on: C. albicans and co-isolated bacteria; conditions: carvacrol combined with cuminaldehyde; ref Touil et al. (2020)
[8] = tested on: Methicillin-susceptible Staphylococcus aureus; conditions: ref Owen et al. 2019
[9] = tested on: Klebsiella pneumoniae; conditions: ref Sayout et al. 2020, de Souza et al. 2021, Kwiatkowski et al. 2022
[10] = tested on: Mupirocin-resistant Staphylococcus aureus; conditions: ref Kwiatkowski et al. 2019
[11] = tested on: Salmonella spp.; conditions: ref Sayout et al. 2020
[12] = tested on: Enterobacter cloacae; conditions: ref Sayout et al. 2020
[13] = tested on: Acinetobacter baumannii; conditions: for MIC/Sensitivity: ref Sayout et al. 2020
[14] = tested on: Ciprofloxacin-resistant Pseudomonas aeruginosa; conditions: resistant P. aeruginosa strains; ref Owen et al. (2019)
[15] = tested on: Mupirocin-susceptible Staphylococcus aureus; conditions: ref Kwiatkowski et al. 2019
[16] = tested on: Klebsiella oxytoca; conditions: ref Sayout et al. 2020
[17] = tested on: Vibrio anguillarum, and Vibrio harveyi; conditions: ref Rossi et al. (2021)
[18] = tested on: Pseudomonas aeruginosa
[19] = tested on: Staphylococcus aureus; conditions: for MIC/Sensitivity: Staphylococcus aureus, ref Kwiatkowski et al. 2020, Sayout et al. 2020, Sousa Silveira et al. 2020, Macêdo et al. 2022, Noumi et al. 2023, Sharma et al. 2023; for MIC: S. aureus
[20] = tested on: Enterobacter aerogenes; conditions: ref Sayout et al. 2020
[21] = tested on: Staphylococcus sp.; conditions: ref Caballero Gómez et al. 2022
[22] = tested on: bovine mastitis; conditions: versus antibiotic treatment, ref Guo et al. 2023
[23] = tested on: Enterococcus sp.; conditions: ref Caballero Gómez et al. 2022
[24] = tested on: Pseudomonas sp.; conditions: ref Caballero Gómez et al. 2022
[25] = tested on: Acinetobacter baumannii; conditions: ref Choudhary et al. 2022
[26] = tested on: Salmonella Typhimurium; conditions: ref Giovagnoni et al. (2020)
[27] = tested on: Candida albicans; conditions: Candida albicans; ref Sharifzadeh et al. 2019; Iraji et al. 2020; Shaban et al. 2020; Stringaro et al. 2022; Biernasiuk et al. 2022
[28] = tested on: Candida glabrata; conditions: Candida glabrata; ref Sharifzadeh et al. 2019; Iraji et al. 2020; Biernasiuk et al. 2022; Stringaro et al. 2022
[29] = tested on: HIV-1; conditions: HIV-1; ref Mediouni et al. (2020)
[30] = tested on: Candida albicans; conditions: ref Shaban et al. 2020
[31] = tested on: Campylobacter jejuni; conditions: for MIC/Sensitivity: Campylobacter jejuni, ref Šimunović et al. 2020; for MIC: ref Šimunović et al. (2020)
[32] = tested on: Staphylococcus pseudintermedius; conditions: Staphylococcus pseudintermedius; ref Sim et al. 2019
[33] = tested on: β-haemolytic Streptococcus spp.; conditions: ref Sim et al. 2019
[34] = tested on: Candida krusei; conditions: Candida krusei; ref Sharifzadeh et al. 2019; Iraji et al. 2020; Biernasiuk et al. 2022; Stringaro et al. 2022
[35] = tested on: Candida auris; conditions: Candida auris; ref Shaban et al. 2020
[36] = tested on: TetK efflux pump; conditions: S. aureus, ref Sousa Silveira et al. (2020)
[37] = tested on: Salmonella Thyphimurium; conditions: ref Giovagnoni et al. 2020
[38] = tested on: Candida species; conditions: ref Stringaro et al. (2022)
[39] = tested on: Malassezia pachydermatis; conditions: ref Schlemmer et al. 2019, Sim et al. 2019
[40] = tested on: Streptococcus suis; conditions: ref de Aguiar et al. 2019
[41] = tested on: staphylococcal isolates; conditions: ref Sim et al. 2019
[42] = tested on: Proteus mirabilis; conditions: ref Sim et al. 2019
[43] = tested on: Candida auris; conditions: ref Shaban et al. 2020
[44] = tested on: Candida tropicalis; conditions: Candida tropicalis; ref Iraji et al. 2020; Stringaro et al. 2022
[45] = tested on: Vibrio anguillarum; conditions: ref Rossi et al. 2021
[46] = tested on: Vibrio harveyi; conditions: ref Rossi et al. 2021
[47] = tested on: Enterococcus, Pseudomonas, and Staphylococcus strains; conditions: ref Caballero Gómez et al. (2022)
[48] = tested on: Chikungunya virus (CHIKV); conditions: ref Kumar et al. (2021)
[49] = tested on: Campylobacter jejuni
[50] = tested on: Methicillin-resistant Staphylococcus aureus; conditions: Methicillin-resistant Staphylococcus aureus; ref Owen et al. 2019
[51] = tested on: influenza H1N1; conditions: 20 μg/ml; ref Panagiotopoulos et al. (2021)

CC(C)c1ccc(C=O)cc1 [Cuminaldehyde]
MIC [1]: 8.40 mM (≈ 1240 µg/mL) | MIC [2]: 2 to 4 mg/mL | MIC ([3]; vancomycin-susceptible enterococci (VSE), ref Owen et al. (2019)): 134.41 mM (≈ 19900 µg/mL) | MIC [4]: 537.65 mM (≈ 79700 µg/mL) | MIC [5]: 1,000–4,000 μg/ml | MIC [6]: 2.10 mM (≈ 311 µg/mL) | MIC in combination [7]: 500–2,000 μg/ml | MIC/Sensitivity [8]: 4979.52 mg/mL (≈ 33600 mM)

C=CC(C)(O)CCC=C(C)C (centres unmarked) [Linalool]
MIC/Sensitivity [9]: 0.00383 mg/mL (≈ 0.0248 mM) | MIC/Sensitivity [10]: 2.83 mg/mL (≈ 18.3 mM) | MIC/Sensitivity [11]: 0.00288 mg/mL (≈ 0.0187 mM) | MIC/Sensitivity [12]: 0.00192 mg/mL (≈ 0.0124 mM) | MIC/Sensitivity [13]: 0.00144 mg/mL (≈ 0.00934 mM) | MIC [14]: 912.90 mM (≈ 141000 µg/mL) | MIC/Sensitivity [15]: 6.8 mg/mL (≈ 44.1 mM) | reduction in vancomycin’s MIC ([3]; binary combinations with vancomycin, VSE, ref Owen et al. (2020)): four to eight-fold reduction | MIC/Sensitivity [16]: 0.00144 mg/mL (≈ 0.00934 mM) | activity at the tested concentrations [17]: no activity | MIC ([18]; antibiotic-sensitive P. aeruginosa, ref Owen et al. (2019)): 228.20 mM (≈ 35200 µg/mL) | MIC/Sensitivity [19]: 0.00288 to 6.8 mg/mL | MIC/Sensitivity [20]: 0.00144 mg/mL (≈ 0.00934 mM)

CC(C)=CCC/C(C)=C/CO [Geraniol]
MIC/Sensitivity [9]: 1.74 mg/mL (≈ 11.3 mM) | MIC/Sensitivity [21]: 0.1 to 0.4 mg/mL | therapeutic effect [22]: equivalent therapeutic effects | MIC [17]: 0.94 to 7.5 mM | MIC/Sensitivity [23]: 0.1 to 0.35 mg/mL | MIC/Sensitivity [24]: 0.1 to 0.4 mg/mL | Mechanisms of action [25]: • Reduction in exopolysaccharide production • Disruption and inhibition of biofilm • Downregulation of csuE gene

Cc1ccc(C(C)C)c(O)c1 [Thymol]
MIC/Sensitivity [9]: 0.78 mg/mL (≈ 5.19 mM) | MIC [26]: 1.87 mM (≈ 281 µg/mL) | MIC/Sensitivity [27]: 0.195 to 0.625 mg/mL | MIC/Sensitivity [21]: 0.2 to 0.4 mg/mL | MIC/Sensitivity [28]: 0.39 mg/mL (≈ 2.6 mM) | IC50 [29]: 25.2 µM | FICI ([13]; combined with ciprofloxacin, ref Aleksic Sabo et al. (2021)): 0.25–0.32 | Mechanisms of action [30]: • Reduced proteinase production | MIC/Sensitivity [31]: 0.03125 mg/mL (≈ 0.208 mM) | MIC [31]: 31.25 µg/mL (≈ 0.208 mM) | MIC/Sensitivity [32]: 0.1 to 0.2 mg/mL | MIC/Sensitivity ([33]; β-haemolytic Streptococcus spp.): 0.2 to 0.4 mg/mL | MIC90 ([33]; β-hemolytic Streptococcus): 0.292 to 0.4 mg/mL | MIC [17]: 0.94 to 7.5 mM | MIC/Sensitivity [34]: 0.39 mg/mL (≈ 2.6 mM) | MIC [35]: 0.312 mg/mL (≈ 2.08 mM) | MIC/Sensitivity [35]: 0.312 mg/mL (≈ 2.08 mM) | efflux pump inhibition [36]: did not act as efflux pump inhibitors | Mechanisms of action [37]: • Anti-inflammatory effects • Anti-oxidant properties • Enhanced epithelial barrier integrity • Reduction of bacterial translocation • Improved transepithelial electrical resistance • Inhibited bacterial growth | MIC [38]: 0.195 to 0.39 mg/mL | MIC/Sensitivity [39]: 0.01 to 0.8 mg/mL | MIC90 ([18]; P. aeruginosa, ref Sim et al. 2019): 0.8 mg/mL (≈ 5.33 mM) | MIC/Sensitivity ([18]; Pseudomonas aeruginosa, ref Owen et al. 2019, Sim et al. 2019, Noumi et al. 2023): 0.4 to 0.8 mg/mL | MIC/Sensitivity [23]: 0.2 to 0.45 mg/mL | MIC/Sensitivity [40]: 0.15625 mg/mL (≈ 1.04 mM) | MIC90 [41]: 0.146 to 0.2 mg/mL | MIC90 [42]: 0.2 to 0.292 mg/mL | MIC/Sensitivity [42]: 0.2 mg/mL (≈ 1.33 mM) | MIC/Sensitivity [24]: 0.1 to 0.3 mg/mL | MIC ([19]; ref Sharma et al. (2023)): 0.125 to 0.25 mg/mL | MIC ([19]; ref Sousa Silveira et al. (2020)): 0.072 mg/mL (≈ 0.479 mM) | MIC/Sensitivity [19]: 0.072 to 0.8 mg/mL | Mechanisms of action [43]: • Reduced proteinase production and host cell adherence | MIC/Sensitivity [44]: 0.39 mg/mL (≈ 2.6 mM)

O=C/C=C/c1ccccc1 [Cinnamaldehyde]
MIC/Sensitivity [21]: 0.01 to 0.05 mg/mL | MIC/Sensitivity [45]: 555.75 mg/mL (≈ 4210 mM) | MIC/Sensitivity [46]: 278.616 mg/mL (≈ 2110 mM) | MIC [17]: 0.94 to 7.5 mM | MIC/Sensitivity [39]: 0.0025 to 0.64 mg/mL | MIC/Sensitivity [23]: 0.01 to 0.05 mg/mL | MIC/Sensitivity [40]: 0.15625 to 0.3125 mg/mL | MIC/Sensitivity [24]: 0.01 to 0.05 mg/mL | MIC [47]: 0.01 to 0.05 mg/mL

CC1=CC(=O)C(C(C)C)=CC1=O [Thymoquinone]
MIC/Sensitivity [31]: 0.03125 mg/mL (≈ 0.19 mM) | MIC [31]: 31.25 µg/mL (≈ 0.19 mM) | EC50 ([48]; CHIKV replication): 4.48 µM | reduction of CHIKV titer ([48]; plaque reduction assay, 20 μM): over 90%

Cc1ccc(C(C)C)cc1 [p-Cymene]
MIC/Sensitivity [9]: 0.01025 mg/mL (≈ 0.0764 mM) | efflux pump inhibition ([49]; C. jejuni, ref Šimunović et al. (2020)): inhibited efflux pumps | Mechanisms of action ([49]; Campylobacter jejuni, ref Šimunović et al. 2020): • Inhibition of efflux pump | MIC/Sensitivity [12]: 0.0041 mg/mL (≈ 0.0305 mM) | MIC/Sensitivity [13]: 0.00513 mg/mL (≈ 0.0382 mM) | MIC/Sensitivity [31]: 1 mg/mL (≈ 7.45 mM) | MIC [31]: 1,000 μg/ml | MIC/Sensitivity [50]: 2150.2044 mg/mL (≈ 16000 mM) | effect on influenza H1N1 [51]: reduced virus protein expression and impaired nuclear translocation | MIC/Sensitivity [19]: 0.01025 mg/mL (≈ 0.0764 mM) | MIC/Sensitivity [8]: 1075.1022 mg/mL (≈ 8010 mM)
